# The source made the active and inactive calls. The rule behind the calls is not given here.
# What was measured:
# Influenza B virus [1] = test: Antiviral activity against Influenza B virus B/Sichuan/379/99 infected in MDCK cells assessed as protection against virus-induced cytopathic effect after 48 to 72 hrs by CellTiter 96 aqueous assay; type: functional, organism-based; conditions: B/Sichuan/379/99, MDCK
# Influenza A virus [2] = test: Antiviral activity against Influenza A virus A/CA/07/2009(H1N1) infected in BALB/c mouse assessed as protection against virus-induced mortality at 1 mg/kg/day, po bid for 5 days followed by viral infection at 4 hrs post first dose measured on day 20 to day 21; type: functional, organism-based; conditions: A/California/07/2009(H1N1)
# [3] = Metabolic stability in dog whole blood at 5 uM; type: ADME, tissue-based, Canis lupus familiaris
# Influenza A virus [4] = test: Antiviral activity against Influenza A virus A/CA/07/2009(H1N1) infected in BALB/c mouse assessed as protection against virus-induced body weight loss at 0.1 mg/kg/day, po bid for 5 days followed by viral infection at 4 hrs post first dose measured after 2 to 14 days; type: functional, organism-based; conditions: A/California/07/2009(H1N1)
# Liver microsomes [5] = test: Metabolic stability in rat liver microsomes at 3 uM; type: ADME, Microsome
# Influenza B virus [6] = test: Antiviral activity against Influenza B virus B/Florida/4/2006 infected in MDCK cells assessed as protection against virus-induced cytopathic effect after 48 to 72 hrs by CellTiter 96 aqueous assay; type: functional, cell-based; conditions: B/Florida/4/2006, MDCK
# Neuraminidase = Neuraminidase (Influenza A virus, UniProt B4URF0)
# Chain of Neuraminidase (B4URF0 whole entry): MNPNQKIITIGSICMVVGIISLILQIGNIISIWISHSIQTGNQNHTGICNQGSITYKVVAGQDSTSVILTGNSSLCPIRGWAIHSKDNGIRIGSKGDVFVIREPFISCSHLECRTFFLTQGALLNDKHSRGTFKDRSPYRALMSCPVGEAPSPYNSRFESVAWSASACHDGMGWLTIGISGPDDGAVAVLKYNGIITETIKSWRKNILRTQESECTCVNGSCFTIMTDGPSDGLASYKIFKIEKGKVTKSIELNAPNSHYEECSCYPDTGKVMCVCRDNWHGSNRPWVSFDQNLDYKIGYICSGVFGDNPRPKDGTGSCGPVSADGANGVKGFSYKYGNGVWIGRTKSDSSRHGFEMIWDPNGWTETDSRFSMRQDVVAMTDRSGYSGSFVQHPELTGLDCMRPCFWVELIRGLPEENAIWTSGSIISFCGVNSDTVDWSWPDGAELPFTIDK
# Blood [7] = test: Metabolic stability in rat whole blood at 5 uM; type: ADME, tissue-based
# Liver microsomes [8] = test: Metabolic stability in human liver microsomes at 3 uM; type: ADME, Microsome
# Liver = test: Metabolic stability in dog liver microsomes at 3 uM; type: ADME, Canis lupus familiaris, Microsome
# [9] = Drug excretion in Sprague-Dawley rat urine at 5 mg/kg, po; type: ADME, organism-based; set-up: dose 5 mg/kg, route oral; conditions: read-out: Drug excretion
# Influenza A virus [10] = test: Antiviral activity against Influenza A virus A/WSN/1933(H1N1) infected in BALB/c mouse assessed as protection against virus-induced mortality at 10 mg/kg/day, po bid for 5 days followed by viral infection at 4 hrs post first dose measured 8 days post infection; type: functional, organism-based
# Influenza A virus [11] = test: Antiviral activity against Influenza A virus A/CA/07/2009(H1N1) infected in BALB/c mouse assessed as protection against virus-induced body weight loss at 1 mg/kg/day, po bid for 5 days followed by viral infection at 4 hrs post first dose measured 20 days post infection; type: functional, organism-based; conditions: A/California/07/2009(H1N1)
# Influenza A virus [12] = test: Antiviral activity against Influenza A virus A/CA/07/2009(H1N1) infected in BALB/c mouse assessed as protection against virus-induced mortality at 0.1 mg/kg/day, po bid for 5 days followed by viral infection at 4 hrs post first dose measured after 2 to 14 days; type: functional, organism-based; conditions: A/California/07/2009(H1N1)
# [13] = Drug excretion in Sprague-Dawley rat feces at 5 mg/kg, po; type: ADME, organism-based; set-up: dose 5 mg/kg, route oral; conditions: faeces, read-out: Drug excretion
# Influenza A virus [14] = test: Antiviral activity against Influenza A virus A/WSN/1933(H1N1) infected in BALB/c mouse assessed as protection against virus-induced body weight loss at 10 mg/kg/day, po bid for 5 days followed by viral infection at 4 hrs post first dose measured 8 days post infection; type: functional, organism-based
# Influenza A virus [15] = test: Antiviral activity against Influenza A virus A/WSN/1933(H1N1) infected in BALB/c mouse assessed as protection against virus-induced mortality at 1 mg/kg/day, po bid for 5 days followed by viral infection at 4 hrs post first dose measured after 2 to 14 days; type: functional, organism-based
# Influenza A virus [16] = test: Antiviral activity against Influenza A virus A/CA/07/2009(H1N1) infected in BALB/c mouse assessed as protection against virus-induced body weight loss at 10 mg/kg/day, po bid for 5 days followed by viral infection at 4 hrs post first dose measured 2 to 14 days post infection; type: functional, organism-based; conditions: A/California/07/2009(H1N1)
# MDCK = test: Cytotoxicity against MDCK cells at 100 uM; type: cell-based, Canis lupus familiaris; conditions: dog
# Influenza A virus [17] = test: Antiviral activity against Influenza A virus A/Brisbane/10/2007(H3N2) infected in MDCK cells assessed as protection against virus-induced cytopathic effect after 48 to 72 hrs by CellTiter 96 aqueous assay; type: functional, organism-based
# Blood [18] = test: Metabolic stability in human whole blood at 5 uM; type: ADME, tissue-based
# [19] = Drug metabolism in dog liver microsomes at 3 uM after 1 hr; type: ADME, Canis lupus familiaris, Microsome; conditions: read-out: Drug metabolism
# [20] = Drug metabolism in rat liver microsomes at 3 uM after 1 hr; type: ADME, Microsome; conditions: read-out: Drug metabolism
# [21] = Drug metabolism in human liver microsomes at 3 uM after 1 hr; type: ADME, Microsome; conditions: read-out: Drug metabolism
# Mus musculus [22] = test: Acute toxicity in CD1 mouse assessed as convulsion at 300 to 2000 mg/kg, ip measured within 2 days; type: organism-based; set-up: dose 300-2000 mg/kg, route intraperitoneal; conditions: in vivo, 48 h
# Mus musculus [23] = test: Acute toxicity in CD1 mouse assessed as body jerks at 300 to 2000 mg/kg, ip measured within 2 days; type: organism-based; set-up: dose 300-2000 mg/kg, route intraperitoneal; conditions: in vivo, 48 h
# Mus musculus [24] = test: Acute toxicity in CD1 mouse assessed as hunched posture at 300 to 2000 mg/kg, ip measured within 2 days; type: organism-based; set-up: dose 300-2000 mg/kg, route intraperitoneal; conditions: in vivo, 48 h
# Mus musculus [25] = test: Acute toxicity in CD1 mouse assessed as lesions at 300 to 2000 mg/kg, ip after 15 days by necropsy analysis; type: organism-based; set-up: dose 300-2000 mg/kg, route intraperitoneal; conditions: in vivo, 360 h
# Influenza A virus [26] = test: Antiviral activity against Influenza A virus A/WSN/1933(H1N1) infected in BALB/c mouse assessed as partial protection against virus-induced mortality at 0.1 mg/kg/day, po bid for 5 days followed by viral infection at 4 hrs post first dose measured 2 to 14 days post infection; type: functional, organism-based
# Mus musculus [27] = test: Acute toxicity in CD1 mouse assessed as piloerection at 300 to 2000 mg/kg, ip measured within 2 days; type: organism-based; set-up: dose 300-2000 mg/kg, route intraperitoneal; conditions: in vivo, 48 h
# Influenza A virus [28] = test: Antiviral activity against Influenza A virus A/WSN/1933(H1N1) infected in BALB/c mouse assessed as partial protection against virus-induced body weight loss at 0.1 mg/kg/day, po bid for 5 days followed by viral infection at 4 hrs post first dose measured 2 to 14 days post infection; type: functional, organism-based
# Mus musculus [29] = test: Acute toxicity in CD1 mouse assessed as tremor at 300 to 2000 mg/kg, ip measured within 2 days; type: organism-based; set-up: dose 300-2000 mg/kg, route intraperitoneal; conditions: in vivo, 48 h
# Plasma = test: Plasma concentration in Sprague-Dawley rat at 1 mg/kg, po; type: ADME, organism-based; set-up: dose 1 mg/kg, route oral; conditions: in vivo, BLD = below limit of detection
# Mus musculus [30] = test: Acute toxicity in CD1 mouse assessed as mortality at 2000 mg/kg, ip; type: organism-based; set-up: dose 2000 mg/kg, route intraperitoneal; conditions: in vivo
# Mus musculus [31] = test: Acute toxicity in CD1 mouse assessed as hypoactivity at 300 to 2000 mg/kg, ip measured within 2 days; type: organism-based; set-up: dose 300-2000 mg/kg, route intraperitoneal; conditions: in vivo, 48 h
# Mus musculus [32] = test: Acute toxicity in CD1 mouse assessed as convulsion at 300 to 1000 mg/kg, iv measured within 2 days; type: organism-based; set-up: dose 300-1000 mg/kg, route intravenous; conditions: in vivo, 48 h
# Mus musculus [33] = test: Acute toxicity in CD1 mouse assessed as body jerks at 300 to 1000 mg/kg, iv measured within 2 days; type: organism-based; set-up: dose 300-1000 mg/kg, route intravenous; conditions: in vivo, 48 h
# Mus musculus [34] = test: Acute toxicity in CD1 mouse assessed as lesions at 300 to 1000 mg/kg, iv after 15 days by necropsy analysis; type: organism-based; set-up: dose 300-1000 mg/kg, route intravenous; conditions: in vivo, 360 h
# Mus musculus [35] = test: Acute toxicity in CD1 mouse assessed as hunched posture at 300 to 1000 mg/kg, iv measured within 2 days; type: organism-based; set-up: dose 300-1000 mg/kg, route intravenous; conditions: in vivo, 48 h
# Mus musculus [36] = test: Acute toxicity in CD1 mouse assessed as mortality at 750 mg/kg, iv; type: organism-based; set-up: dose 750 mg/kg, route intravenous; conditions: in vivo
# Mus musculus [37] = test: Acute toxicity in CD1 mouse assessed as hypoactivity at 300 to 1000 mg/kg, iv measured within 2 days; type: organism-based; set-up: dose 300-1000 mg/kg, route intravenous; conditions: in vivo, 48 h
# Mus musculus [38] = test: Acute toxicity in CD1 mouse assessed as tremor at 300 to 1000 mg/kg, iv measured within 2 days; type: organism-based; set-up: dose 300-1000 mg/kg, route intravenous; conditions: in vivo, 48 h
# Mus musculus [39] = test: Acute toxicity in CD1 mouse assessed as piloerection at 300 to 1000 mg/kg, iv measured within 2 days; type: organism-based; set-up: dose 300-1000 mg/kg, route intravenous; conditions: in vivo, 48 h
# in vivo = conditions: Sprague-Dawley, rat, po, 10 mg/kg
smiles,measurement,setting,value
CCC(CC)O[C@@H]1C=C(P(=O)(O)O)C[C@H](NC(=N)N)[C@H]1NC(C)=O,EC50,Influenza B virus [1],> 10 µM
same,Activity,Influenza A virus [2],inactive
same,Stability,[3],Unstable
same,Activity,Influenza A virus [4],inactive
same,Stability,Liver microsomes [5],Unstable
same,EC50,Influenza B virus [6],> 10 µM
same,IC50,Neuraminidase,0.0003 µM
same,Stability,Blood [7],Unstable
same,Stability,Liver microsomes [8],Unstable
same,Stability,Liver,Unstable
same,dose excreted,[9],1.5%
same,Activity,Influenza A virus [10],Active
same,Activity,Influenza A virus [11],inactive
same,Activity,Influenza A virus [12],inactive
same,dose excreted,[13],43.2%
same,Activity,Influenza A virus [14],Active
same,Activity,Influenza A virus [15],Active
same,Activity,Influenza A virus [16],Active
same,Activity,MDCK,Non-toxic
same,EC50,Influenza A virus [17],> 10 µM
same,Stability,Blood [18],Unstable
CCOP(=O)(OCC)C1=C[C@@H](OC(CC)CC)[C@H](NC(C)=O)[C@@H](N)C1,Activity,Influenza A virus [10],inactive
same,Activity,Influenza A virus [14],inactive
same,Activity,Influenza A virus [15],Active
Cc1ncc2n1-c1ccc(Cl)cc1C(c1ccccc1F)=NC2 [MIDAZOLAM],"metabolised at 1 h, 3 µM",[19],65%
same,"metabolised at 1 h, 3 µM",[20],65%
same,"metabolised at 1 h, 3 µM",[21],65%
CCOP(=O)(O)C1=C[C@@H](OC(CC)CC)[C@H](NC(C)=O)[C@@H](N)C1 [TAMIPHOSPHOR MONOETHYL ESTER],Activity,Mus musculus [22],Non-toxic
same,Activity,Mus musculus [23],Non-toxic
same,Activity,Mus musculus [24],Non-toxic
same,Activity,Mus musculus [25],Non-toxic
same,Activity,Influenza A virus [26],Active
same,Activity,Influenza A virus [10],Active
same,Activity,Mus musculus [27],Non-toxic
same,Activity,Influenza A virus [14],Active
same,Activity,Influenza A virus [15],Active
same,Activity,Influenza A virus [28],Active
same,Activity,Mus musculus [29],Non-toxic
same,Cp,Plasma,BLD
same,Activity,MDCK,Non-toxic
same,EC50,Influenza A virus [17],> 10 µM
same,Activity,Mus musculus [30],Toxic
same,Activity,Mus musculus [31],Non-toxic
CCOP(=O)(O)C1=C[C@@H](OC(CC)CC)[C@H](NC(C)=O)[C@@H](NC(=N)N)C1 [TAMIPHOSPHOR MONOETHYL ESTER],Activity,Influenza A virus [2],inactive
same,Activity,Influenza A virus [4],inactive
same,Activity,Influenza A virus [26],Active
same,Activity,Influenza A virus [10],Active
same,Activity,Influenza A virus [11],inactive
same,Activity,Influenza A virus [12],inactive
same,Activity,Influenza A virus [14],Active
same,Activity,Influenza A virus [15],Active
same,Activity,Influenza A virus [28],Active
same,Activity,Influenza A virus [16],Active
CCC(CC)O[C@@H]1C=C(P(=O)(O)O)C[C@H](N)[C@H]1NC(C)=O [TAMIPHOSPHOR],Activity,Mus musculus [32],Non-toxic
same,Activity,Mus musculus [33],Non-toxic
same,Activity,Mus musculus [34],Non-toxic
same,IC50,Neuraminidase,0.0018 µM
same,Activity,Mus musculus [35],Non-toxic
same,Activity,Mus musculus [36],Toxic
same,Activity,Mus musculus [37],Non-toxic
same,Activity,Influenza A virus [10],Active
same,Activity,Mus musculus [38],Non-toxic
same,Activity,Influenza A virus [14],Active
same,Activity,Influenza A virus [15],Active
same,Activity,Mus musculus [39],Non-toxic
same,Activity,MDCK,Non-toxic
same,EC50,Influenza A virus [17],> 10 µM
C[C@]12CC[C@H]3[C@@H](CCC4=CC(=O)CC[C@@]43C)[C@@H]1CC[C@@H]2O [TESTOSTERONE],"metabolised at 1 h, 3 µM",[19],65%
same,"metabolised at 1 h, 3 µM",[20],65%
same,"metabolised at 1 h, 3 µM",[21],65%
CC(=O)N[C@H]1[C@H]([C@H](O)[C@H](O)CO)OC(C(=O)O)=C[C@@H]1N=C(N)N [ZANAMIVIR],bioavailability,in vivo,3.7%
